Measured values published in patent publication US20210000988A1, “PHARMACEUTICAL COMPOSITION CONTAINING 211AT-LABELED AMINO ACID DERIVATIVE, AND METHOD FOR PRODUCING SAID PHARMACEUTICAL COMPOSITION” (OSAKA UNIVERSITY, priority 2018, published 2021).

Assays:
[1] = test system: human pancreatic cancer cell line (PANC-1); test: Cellular uptake / accumulation in cancer cells (radiation dose remaining in the cells); type: cell-based
Protocol: A human pancreatic cancer cell line (PANC-1) was treated with ^211At-AAMT and cultured for a predetermined time. Then, the cells were washed to remove unincorporated ^211At-AAMT. The cellular uptake of ^211At-AAMT was measured from the radiation dose remaining in the cells.
Further, an effect of ascorbic acid on the cellular accumulation of ^211At-AAMT was also examined. The measurement result of the radiation dose in the human pancreatic cancer cell line in the absence and presence of ascorbic acid is shown in FIG. 5.

[2] = test system: human pancreatic cancer cell line (PANC-1); test: Cell-killing effect (cell survival rate); type: cell-based; settings: PANC-1 cells
Description: 4. Examination of cell-killing effect of ^211At-AAMT A cell survival rate of the human pancreatic cancer cell line (PANC-1) administered with ^211At-AAMT under the same conditions as in Example 3 is shown in FIG. 6. […] On the other hand, the cellular uptake of ^211At-AAMT was reduced in the presence of the inhibitor BCH or methyltyrosine.

[3] = In vivo stability: TLC of blood and urine after intravenous injection in normal rats; settings: ascorbic acid 1% final concentration, after one hour
Protocol: ^211At-AAMT to which ascorbic acid was added at a final concentration of 1% was intravenously injected in normal rats, and, after one hour, blood and urine were collected and analyzed by thin-layer chromatography (TLC). As a thin layer plate, silica gel G60F254 (Merck KGaA) was used, and, as a development solvent, a mixture of butanol:water:acetic acid (4:1:1) was used (Nacalai Tesque, Inc.). The thin layer plate after development was analyzed by using a bioimaging analysis apparatus (Typhoon 7000, GE Healthcare) (FIG. 2). […] That is, it was shown that ^211At-AAMT to which ascorbic acid was added could stably exist in the living body without being metabolized or degraded.

[4] = In vitro stability by thin-layer chromatography (TLC), with and without sodium ascorbate; type: physicochemical
Description: The stability of ^211At-AAMT synthesized in Example 1 was compared in the presence and absence of sodium ascorbate using thin-layer chromatography (TLC).

[5] = test system: human pancreatic cancer cell line (PANC-1); test: Administration to cancer-bearing mouse (tumor size and body weight); type: in vivo; settings: PANC-1 cancer-bearing mouse, intravenous, 0.6 MBq per mouse, 7 days after administration
Description: A cancer-bearing mouse created by using the human pancreatic cancer cell line (PANC-1) was intravenously administered with ^211At-AAMT at a dose of 0.6 MBq per mouse. A change in the tumor size caused by the administration is shown in FIG. 8(A), while a change in the body weight of the cancer-bearing mouse is shown in FIG. 8(B).

[6] = Image analysis of in vivo localization in the normal rat using a gamma camera
[7] = test system: human pancreas cell line PANC-1; test: SPECT imaging in pancreatic cancer (PANC-1) transplanted mice; type: in vivo, Balb/c-nu/nu mice; settings: PANC-1 transplanted mice (two animals), intravenous, 1 MBq, with 1% ascorbic acid, after 10 minutes
Protocol: Balb/c-nu/nu mice (female, 5 weeks old) purchased from Japan SLC, Inc. were acclimated in a breeding space for one week. A human pancreas cell line PANC-1 (RIKEN cell bank), which was maintained in an RPMI 1640 medium (Sigma-Aldrich) supplemented with 10% fetal bovine serum (Gibco) and 1% antibiotics (100×, FUJIFILM Wako Pure Chemical Corp.), was adjusted to a concentration of 5×10^6 cells/100 μL. Subsequently, the cells were mixed with Matrigel (Growth Factor Reduced, BD) in a 1:1 ratio, and the mixture was transplanted to a subcutaneous region of the hinder back of a mouse using a syringe (FN syringe 27G, Terumo Corp.). Subsequently, after one-month follow-up observation, the mouse having a sufficiently large tumor size was used in the experiment. These pancreatic cancer transplanted mice (animal 1: 25.5 g, animal 2: 30.2 g) were intravenously injected with ^211At-AAMT (with 1% ascorbic acid, at a dose of 1 MBq each), and SPECT imaging was performed after 10 minutes. Imaging was performed using a gamma camera E-Cam (Siemens) (imaging time: 10 minutes, collimator: low energy all purpose, pixel size: 1.2 mm×1.2 mm, matrix: 256×256, zoom: 2-fold, energy window: 79±20%).

Melanoma cells B16F10 = test: Treatment effect on melanoma metastasis to lung (nodule count and body weight); type: in vivo, C57BL/6 mice; settings: B16F10 transplanted mice, intravenous
Description: C57BL/6 mice (female, 5 weeks old) purchased from Japan SLC, Inc. were used in the experiment after being acclimated in a breeding space for one week. Melanoma cells B16F10 (a high lung-metastatic cell line cloned from B16, RIKEN cell bank) were maintained in a D-MEM medium (high glucose, Sigma-Aldrich) supplemented with 10% fetal bovine serum (Gibco) and 1% antibiotics (100×, FUJIFILM Wako Pure Chemical Corp.). These cells in an amount of 2×10^5 cells were intravenously transplanted in each mouse. On the following day, the mice (N=5) was intravenously injected with ^211At-AAMT (with 1% ascorbic acid) at a dose of 0.0 MBq (control group), 0.1 MBq, or 1 MBq. Fourteen days later, the mice were dissected, and the number of nodules spread to the lung was visually counted. The results of the number of the nodules and a change in the body weight thus obtained were shown in FIG. 11 and FIG. 12, respectively.

[8] = Effect of ascorbic acid on biodistribution in normal mice (organ radioactivity, gamma counter); type: in vivo, ddY mice; settings: intravenous, one hour, 1% ascorbic acid addition group compared with ascorbic acid free group
Description: Next, an effect of ascorbic acid on biodistribution of ^211At-AAMT in the mouse body was compared. ddY mice (male, 5 weeks old) purchased from Japan SLC, Inc. were used after being acclimated for one week (6 weeks old at the time of experiment). ^211At-AAMT with 1% ascorbic acid or without ascorbic acid was intravenously injected in normal mice (N=3), and the mice were dissected after one hour. The organs were all put in polyethylene bags with zipper (A-4, 0.04 mm, SEISANNIPPONSHA Ltd.), and radioactivity of the organs was measured using Wizard^2 gamma counter (PerkinElmer).

[9] = SPECT imaging in normal rats; type: in vivo, rats (Wister); settings: intravenous, 1 MBq, without ascorbic acid, 20 minutes to 1 hour
Protocol: Normal rats (Wister, 3 months old, male, 3 animals, body weight of 289.8±5.5 g) were intravenously injected with ^211At-AAMT (without ascorbic acid, 1 MBq), and SPECT imaging was performed after from 20 minutes to 1 hour. Imaging was performed using a gamma camera E-Cam (Siemens) (imaging time: 20 minutes, collimator: low energy all purpose, pixel size: 2.4 mm×2.4 mm×2.4 mm (SPECT), matrix: 128×128).

SMILES	uptake of ^211At-AAMT under competition with the inhibitor ([1]; PANC-1 cells, competitor added (Comparative example))	cell survival rate with ^211At-AAMT in the presence of the inhibitor ([2]; competitor present)	radioactive species detected in blood and urine [3]	time at which uptake reached the maximum value ([1]; PANC-1 cells)	increase of cellular uptake in the cancer cells by addition of ascorbic acid ([1]; PANC-1 cells, with versus without ascorbic acid)	accumulation in PANC-1 on addition of ascorbic acid ([1]; ascorbic acid 0.1% versus absence)	time in which almost all of the compound was degraded ([4]; in the absence of sodium ascorbate)	stability over time ([4]; in the presence of sodium ascorbate)	change in body weight [5]	change in tumor size [5]	excretion [6]	in vivo localization of radioactivity [6]	visualization of the thyroid (SPECT) [7]	visualization of the tumor (SPECT) [7]	cell-killing effect (cell survival rate) ([2]; same conditions as Example 3)	cancer cell-killing activity on addition of ascorbic acid ([2]; with versus without ascorbic acid)	body weight change (Melanoma cells B16F10; 0.1 MBq or 1 MBq with 1% ascorbic acid versus control group)	number of melanoma nodules in the lung (Melanoma cells B16F10; 0.1 MBq or 1 MBq with 1% ascorbic acid versus control, fourteen days later)	accumulation in the stomach and the kidney [8]	accumulation of radioactivity (SPECT) [9]
NC1(C(=O)O)CC2CCC1C2 (centres unmarked) [BCH, 2-aminobicyclo[2.2.1]heptane-2-carboxylic acid, reference compound]	reduced	a significant reduction in the cell survival rate was not observed																		
CC(N)(Cc1ccc(O)c([211At])c1)C(=O)O (centres unmarked) [^211At-AAMT]			only ^211At-AAMT was detected in both the blood and the urine, but free ^211At was not observed	about 10 minutes	increased about four times	significantly increased	about 40 minutes	could stably exist even after the lapse of seven or more hours	a substantial reduction of the body weight was not observed	a regression effect of the tumor was obtained	quick excretion of ^211At-AAMT by the kidney	accumulation of the radioactivity was observed in the kidney and its surrounding organs	the thyroid was not visualized	the tumors were clearly visualized in both cases	nearly all of the cancer cells could be killed	increased	no difference in the body weight change	decreased more in the group with more doses	significantly reduced	accumulation of the radioactivity was observed in the thyroid and the stomach in all animals
